According to patent publication US12630600B2 (MEDIMMUNE LIMITED, priority 2022, dated 2026):
pEC50: −log10 of the molar value. Read-outs that look alike come from different tables or passages of the source. Blank lines part the entries; values can stand above or below the compound they belong to. Starred links: 1 amine or outer side, 2 acyl side, 3 side chain; linkers in the order of their positions; H or OH if unused. Non-standard residues stand in square brackets, D forms with d. Residues, ends and D or L forms follow the SMILES beside them. Groups on a side chain read outwards from the residue. *: point of attachment. C20 diacid = O=C(O)CCCCCCCCCCCCCCCCCCC(=O)*; C18 diacid = O=C(O)CCCCCCCCCCCCCCCCC(=O)*; Dip = N[C@H](C(=O)O)C(c1ccccc1)c1ccccc1; γGlu = O=C(O)[C@H](CCC(=O)[*:2])N[*:1]; αMeF = C[C@](N)(Cc1ccccc1)C(=O)O; PEG2 = NCCOCCOCCC(=O)O; AEEA = NCCOCCOCC(=O)O; Aib = CC(C)(N)C(=O)O

Key:
neprilysin = molecular target: T1, neprilysin (Homo sapiens, UniProt P08473); experiment: Proteolytic resistance to neprilysin; format: in vitro ADME; conditions: pH 8.3
T1 construct: purchased R&D Systems 1182-ZNC-010
T1 sequence (P08473 whole entry): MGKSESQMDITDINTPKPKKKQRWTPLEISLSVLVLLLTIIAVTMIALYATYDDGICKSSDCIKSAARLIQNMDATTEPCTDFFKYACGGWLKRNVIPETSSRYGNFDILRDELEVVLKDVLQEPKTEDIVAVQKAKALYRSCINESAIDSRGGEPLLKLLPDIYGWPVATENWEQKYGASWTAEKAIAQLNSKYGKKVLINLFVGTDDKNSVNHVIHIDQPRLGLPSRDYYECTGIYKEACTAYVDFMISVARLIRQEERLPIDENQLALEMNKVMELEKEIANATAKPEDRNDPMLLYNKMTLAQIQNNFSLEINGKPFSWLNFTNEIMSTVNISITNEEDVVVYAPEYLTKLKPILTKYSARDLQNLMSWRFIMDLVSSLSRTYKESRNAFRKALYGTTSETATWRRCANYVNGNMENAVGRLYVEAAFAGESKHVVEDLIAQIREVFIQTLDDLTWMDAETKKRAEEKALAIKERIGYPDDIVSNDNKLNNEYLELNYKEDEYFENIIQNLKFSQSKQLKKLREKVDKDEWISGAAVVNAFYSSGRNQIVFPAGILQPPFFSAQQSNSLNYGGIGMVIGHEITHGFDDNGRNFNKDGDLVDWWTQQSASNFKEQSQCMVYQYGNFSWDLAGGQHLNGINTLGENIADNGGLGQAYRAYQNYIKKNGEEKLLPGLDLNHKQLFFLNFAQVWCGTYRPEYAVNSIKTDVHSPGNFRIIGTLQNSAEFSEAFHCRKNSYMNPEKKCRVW
Protocol: 10.0 μg (˜10 units) recombinant Neprilysin (R&D Systems: 1182-ZNC-010) was reconstituted to 100 μL (100 μg/mL, ˜100 units/mL) in assay buffer (50 mM Tris, 50 mM NaCl, 50 mM NaHCO3, adjusted to pH 8.3) to give the enzyme stock solution. Peptide stock solutions were prepared to a concentration of ˜250 μM (˜1.0 mg/mL of 4 kDa peptide) in assay buffer. 100 μL (10 μg, ˜10 units) of neprilysin stock solution was added to 100 μL of peptide stock solution (1.0 mg/mL, ˜100 μg of peptide) and the mixture was co-incubated in a temperature regulated incubator at 37° C. for the duration of the experiment. 25 μL aliquots (˜12.5 μg initial peptide) of the peptide-enzyme mixture were periodically withdrawn (t=0, 30 mins, 1 h, 2 h, 4 h and 24 h) and quenched immediately by addition to an equal volume ([…]) of 10% TFA (v/v) in 1:1 water/acetonitrile to arrest proteolytic activity. The quenched aliquot centrifuged at 7800 rpm, and 30 μL of the supernatant was analyzed by analytical RP-HPLC as follows: Analytical RP-HPLC method: Agilent Polaris C8-A column (4.6×100 mm, 3 micron) eluted with a linear binary gradient of 10-90% MeCN (0.1% TFA v/v) in water (0.1% TFA v/v) over either 10 or 15 mins at 1.5 mL min^−1 at 40° C. with detection by UV absorption at 210 nm. Manual integration (AUC) allowed estimation of remaining intact peptide over the time course of the experiment.

[1] = molecular target: T2, human glucagon receptor (hGCGR) (Homo sapiens, UniProt P47871); experiment: cAMP production (HTRF) in CHO cells expressing human glucagon receptor; format: cell-based; conditions: for pEC50: read-out: hGluc-R EC50
T2 construct: expressed in transfected cells; host or cells: CHO
T2 sequence (P47871 26-477): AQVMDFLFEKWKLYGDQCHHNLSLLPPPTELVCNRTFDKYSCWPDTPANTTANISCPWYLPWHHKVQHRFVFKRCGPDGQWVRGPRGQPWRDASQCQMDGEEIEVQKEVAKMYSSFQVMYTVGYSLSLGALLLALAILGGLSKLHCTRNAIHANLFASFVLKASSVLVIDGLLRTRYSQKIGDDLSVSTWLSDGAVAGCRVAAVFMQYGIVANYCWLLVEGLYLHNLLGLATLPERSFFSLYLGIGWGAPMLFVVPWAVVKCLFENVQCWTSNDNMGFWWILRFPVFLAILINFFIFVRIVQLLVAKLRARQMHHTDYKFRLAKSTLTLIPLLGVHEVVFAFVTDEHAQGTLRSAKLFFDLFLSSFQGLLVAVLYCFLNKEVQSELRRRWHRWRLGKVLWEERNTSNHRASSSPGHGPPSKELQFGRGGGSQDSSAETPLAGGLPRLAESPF

[2] = molecular target: T3, human GLP-1 receptor (hGLP-1R) (Homo sapiens, UniProt P43220); experiment: cAMP production (HTRF) in CHO cells expressing human GLP-1 receptor; format: cell-based; conditions: for % Relative Potency Ratio: % GLP-1R activity relative to GLP-1 / % GlucR activity relative to glucagon; for pEC50: read-out: hGLP-1R EC50
T3 construct: expressed in transfected cells; host or cells: CHO
T3 sequence (P43220 24-463): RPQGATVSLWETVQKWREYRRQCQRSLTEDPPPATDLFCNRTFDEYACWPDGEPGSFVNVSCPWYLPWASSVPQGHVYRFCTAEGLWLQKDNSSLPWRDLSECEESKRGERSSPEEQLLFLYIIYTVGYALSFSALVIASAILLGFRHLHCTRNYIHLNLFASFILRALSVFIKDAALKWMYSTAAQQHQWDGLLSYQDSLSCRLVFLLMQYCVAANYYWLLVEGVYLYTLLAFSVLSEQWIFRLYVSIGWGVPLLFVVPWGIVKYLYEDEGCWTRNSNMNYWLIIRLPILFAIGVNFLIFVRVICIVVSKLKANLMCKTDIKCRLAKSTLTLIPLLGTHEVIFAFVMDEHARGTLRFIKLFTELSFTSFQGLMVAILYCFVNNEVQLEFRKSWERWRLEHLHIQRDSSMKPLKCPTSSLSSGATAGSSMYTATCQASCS

% intact peptide over time, Neprilysin (neprilysin): 100%
Structure (SMILES): CC[C@H](C)[C@H](NC(=O)C(C)(C)NC(=O)[C@H](CCC(N)=O)NC(=O)[C@@H](NC(=O)[C@](C)(Cc1ccccc1)NC(=O)[C@H](CC(=O)O)NC(=O)[C@H](CCCCNC(=O)COCCOCCNC(=O)COCCOCCNC(=O)CC[C@H](NC(=O)CC[C@H](NC(=O)CCCCCCCCCCCCCCCCCCC(=O)O)C(=O)O)C(=O)O)NC(=O)[C@H](C)NC(=O)[C@H](C)NC(=O)[C@H](CCCNC(=N)N)NC(=O)[C@H](CO)NC(=O)[C@H](CC(=O)O)NC(=O)[C@H](CC(C)C)NC(=O)[C@](C)(Cc1ccccc1)NC(=O)[C@H](CCCCN)NC(=O)[C@H](CO)NC(=O)[C@@H](NC(=O)[C@H](CC(=O)O)NC(=O)[C@H](CO)NC(=O)[C@@H](NC(=O)[C@H](Cc1ccccc1)NC(=O)[C@H](CO)NC(=O)CNC(=O)[C@H](Cc1c[nH]cn1)NC(=O)C(C)(C)NC(=O)[C@@H](N)Cc1c[nH]cn1)[C@@H](C)O)C(C)C)C(C)C)C(=O)N[C@@H](C)C(=O)N[C@@H](CC(N)=O)C(=O)N[C@H](C(N)=O)[C@@H](C)O [Peptide 282] (H-H[Aib]HGSFTSDVSK[αMeF]LDSRAAK([AEEA-AEEA-γGlu-γGlu-C20 diacid])D[αMeF]VQ[Aib]IANT-NH2)

% intact peptide over time, Neprilysin (neprilysin): 100%
Structure (SMILES): CC[C@H](C)[C@H](NC(=O)C(C)(C)NC(=O)[C@H](CCC(N)=O)NC(=O)[C@@H](NC(=O)[C@H](Cc1ccccc1)NC(=O)[C@H](CC(=O)O)NC(=O)[C@H](CCCCNC(=O)COCCOCCNC(=O)COCCOCCNC(=O)CC[C@H](NC(=O)CCCCCCCCCCCCCCCCC(=O)O)C(=O)O)NC(=O)[C@H](C)NC(=O)[C@H](C)NC(=O)[C@H](CCCNC(=N)N)NC(=O)[C@H](CO)NC(=O)[C@H](CC(=O)O)NC(=O)[C@H](CC(C)C)NC(=O)[C@](C)(Cc1ccccc1)NC(=O)[C@H](CCCCN)NC(=O)[C@H](CO)NC(=O)[C@@H](NC(=O)[C@H](CC(=O)O)NC(=O)[C@H](CO)NC(=O)[C@@H](NC(=O)[C@](C)(Cc1ccccc1)NC(=O)[C@H](CO)NC(=O)CNC(=O)[C@H](Cc1c[nH]cn1)NC(=O)C(C)(C)NC(=O)[C@@H](N)Cc1c[nH]cn1)[C@@H](C)O)C(C)C)C(C)C)C(=O)N[C@@H](C)C(=O)N[C@@H](CC(N)=O)C(=O)N[C@H](C(N)=O)[C@@H](C)O [Peptide 287] (H-H[Aib]HGS[αMeF]TSDVSK[αMeF]LDSRAAK([AEEA-AEEA-γGlu-C18 diacid])DFVQ[Aib]IANT-NH2)

pEC50 ([1]; Table 10, peptides modified at position 13, geometric mean, CHO cells): 10.66 | pEC50 ([2]; Table 10, peptides modified at position 13, geometric mean, CHO cells, cAMP): 11.25 | % Relative Potency Ratio ([2]; Table 10): 7.6
Structure (SMILES): CCCCCCCCCCCCCCCCCC(=O)N[C@@H](CCC(=O)N[C@@H](CCC(=O)NCCOCCOCCC(=O)NCCOCCOCCC(=O)NCCCC[C@H](NC(=O)[C@H](CCCCN)NC(=O)[C@H](CO)NC(=O)[C@@H](NC(=O)[C@H](CC(=O)O)NC(=O)[C@H](CO)NC(=O)[C@@H](NC(=O)[C@](C)(Cc1ccccc1)NC(=O)[C@H](CO)NC(=O)CNC(=O)[C@H](CCC(N)=O)NC(=O)[C@H](CO)NC(=O)[C@@H](N)Cc1c[nH]cn1)[C@@H](C)O)C(C)C)C(=O)N[C@@H](CC(C)C)C(=O)N[C@@H](CC(=O)O)C(=O)N[C@@H](CO)C(=O)N[C@H](C(=O)N[C@@H](C)C(=O)N[C@@H](C)C(=O)N[C@@H](CCC(N)=O)C(=O)N[C@@H](CC(=O)O)C(=O)N[C@@](C)(Cc1ccccc1)C(=O)N[C@H](C(=O)N[C@@H](CCC(=O)O)C(=O)N[C@@H](Cc1c[nH]cn1)C(=O)N[C@@H](CC(C)C)C(=O)N[C@@H](C)C(=O)N[C@@H](CC(N)=O)C(=O)N[C@H](C(N)=O)[C@@H](C)O)C(C)C)C(C)(C)CCNC(=N)N)C(=O)O)C(=O)O [Peptide 404, HSQGS(αMePhe)TSDVSKK((PEG)2-(PEG)2-γE-γE-Stearoyl)13LDS(ß-dimethylArg)AAQD(αMePhe)VEHLANT-amide]

The next lines start with the compound.

Structure (SMILES): CC[C@H](C)[C@H](NC(=O)[C@H](Cc1c[nH]c2ccccc12)NC(=O)[C@H](CCCCNC(=O)CC[C@H](NC(=O)CCCCCCCCCCCCCCCCC(=O)O)C(=O)O)NC(=O)[C@@H](NC(=O)[C@H](Cc1ccccc1)NC(=O)[C@H](CC(=O)O)NC(=O)[C@H](CCC(N)=O)NC(=O)[C@H](C)NC(=O)[C@H](C)NC(=O)[C@H](CCC(N)=O)NC(=O)[C@H](CO)NC(=O)[C@H](CC(=O)O)NC(=O)[C@H](CC(C)C)NC(=O)[C@](C)(Cc1ccccc1)NC(=O)[C@H](CCCCN)NC(=O)[C@H](CO)NC(=O)[C@@H](NC(=O)[C@H](CC(=O)O)NC(=O)[C@H](CO)NC(=O)[C@@H](NC(=O)[C@H](Cc1ccccc1)NC(=O)[C@@H](NC(=O)CNC(=O)[C@H](Cc1c[nH]cn1)NC(=O)C(C)(C)NC(=O)[C@@H](N)Cc1c[nH]cn1)[C@@H](C)O)[C@@H](C)O)C(C)C)C(C)C)C(=O)N[C@@H](C)C(=O)N[C@@H](CC(N)=O)C(=O)N[C@H](C(N)=O)[C@@H](C)O [Peptide 346]
EC50 ([1]; hGluc-R EC50 (pM), Table 8, peptides modified at position 24, geometric mean, CHO cells): 203 pM | % Relative Potency Ratio ([2]; Table 8): 0.1 | EC50 ([2]; hGLP-1R EC50 (pM), Table 8, peptides modified at position 24, geometric mean, CHO cells, cAMP): 7320 pM

Structure (SMILES): CC[C@H](C)[C@H](NC(=O)[C@@H](NC(=O)C(C)(C)NC(=O)[C@H](CCC(=O)O)NC(=O)[C@@H](NC(=O)[C@](C)(Cc1ccccc1)NC(=O)[C@H](CC(=O)O)NC(=O)[C@H](CCC(N)=O)NC(=O)[C@H](C)NC(=O)[C@H](C)NC(=O)[C@H](CCCCNC(=O)CCOCCOCCNC(=O)CCOCCOCCNC(=O)CC[C@H](NC(=O)CC[C@H](NC(=O)CCCCCCCCCCCCCCCCC(=O)O)C(=O)O)C(=O)O)NC(=O)[C@H](CO)NC(=O)[C@H](CC(=O)O)NC(=O)[C@H](CC(C)C)NC(=O)[C@@H](NC(=O)[C@H](CCCCN)NC(=O)[C@H](CO)NC(=O)[C@@H](NC(=O)[C@H](CC(=O)O)NC(=O)[C@H](CO)NC(=O)[C@@H](NC(=O)[C@](C)(Cc1ccccc1)NC(=O)[C@H](CO)NC(=O)CNC(=O)[C@H](CCC(N)=O)NC(=O)[C@H](CO)NC(=O)[C@@H](N)Cc1c[nH]cn1)[C@@H](C)O)C(C)C)C(c1ccccc1)c1ccccc1)C(C)C)[C@@H](C)CC)C(=O)N[C@@H](CC(N)=O)C(=O)N[C@H](C(N)=O)[C@@H](C)O [Peptide 65] (H-HSQGS[αMeF]TSDVSK[Dip]LDSK([PEG2-PEG2-γGlu-γGlu-C18 diacid])AAQD[αMeF]VE[Aib]IINT-NH2)
pEC50 ([1]; Table 6, modification at position 17, CHO cells expressing hGCGR, geometric mean): 8.69 | pEC50 ([2]; Table 6, modification at position 17, CHO cells expressing hGLP-1R, cAMP, geometric mean): 8.91 | % Relative Potency Ratio ([2]; Table 6): 3.3

Structure (SMILES): CC[C@H](C)[C@H](NC(=O)[C@H](Cc1c[nH]c2ccccc12)NC(=O)[C@H](CCCCNC(=O)CC[C@H](NC(=O)CCCCCCCCCCCCCCCCC(=O)O)C(=O)O)NC(=O)[C@@H](NC(=O)[C@H](Cc1ccccc1)NC(=O)[C@H](CC(=O)O)NC(=O)[C@H](CCC(N)=O)NC(=O)[C@H](C)NC(=O)[C@H](C)NC(=O)[C@H](CCCNC(=N)N)NC(=O)[C@H](CO)NC(=O)[C@H](CC(=O)O)NC(=O)[C@H](CC(C)C)NC(=O)[C@@H](NC(=O)[C@H](CCCCN)NC(=O)[C@H](CO)NC(=O)[C@@H](NC(=O)[C@H](CC(=O)O)NC(=O)[C@H](CO)NC(=O)[C@@H](NC(=O)[C@H](Cc1ccccc1)NC(=O)[C@H](CO)NC(=O)CNC(=O)[C@H](CCC(N)=O)NC(=O)C(C)(C)NC(=O)[C@@H](N)Cc1c[nH]cn1)[C@@H](C)O)C(C)C)C(c1ccccc1)c1ccccc1)C(C)C)C(=O)N[C@@H](C)C(=O)N[C@@H](CC(N)=O)C(=O)N[C@H](C(N)=O)[C@@H](C)O [Peptide 343] (H-H[Aib]QGSFTSDVSK[Dip]LDSRAAQDFVK([γGlu-C18 diacid])WIANT-NH2)
pEC50 ([1]; Table 7, modification at position 20, CHO cells expressing hGCGR, geometric mean): 7.71 | pEC50 ([2]; Table 7, modification at position 20, CHO cells expressing hGLP-1R, cAMP, geometric mean): 9.70 | % Relative Potency Ratio ([2]; Table 7): 196.1 | % Relative Potency Ratio ([2]; Table 8): 4.2
